For this assay, the system named is HRV14. As to the kind of experiment: Inhibitory activity against human rhinovirus infection and replication (quantitative real-time PCR). In kind it is cell-based. The settings on record: Human rhinovirus sp., MRC5; 100 nmol/L test compound; MRC-5 cells infected with HRV14 at MOI=0.2; 48 hours; viral load normalized to 18s rRNA; read-out: Percent Inhibition. The method, boiled down: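 Near-confluent MRC-5 cells were pretreated 30 min with compound at 100 or 1000 nmol/L, then infected with HRV14 (MOI 0.2) in compound-containing medium (2% FBS, 30 mmol/L MgCl2) and cultured 48 h at 35 °C. HRV14 RNA by qRT-PCR, normalized to 18S rRNA; percent inhibition versus untreated infected cells.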

Bounds are passed on as bounds.

What is called inhibition is the relative decrease from the control value, in per cent.

As for `COc1ccc(-c2c(C)nc3sc(C(C)(C)O)nn23)cc1S(=O)(=O)N[C@H]1CC[C@](C)(O)CC1` [Example 21-12], the inhibition at 0.1 µM fell in the range of 50 to 80%.

Consider `COc1ccc(-c2c(C)nc3sc(C(C)(C)OC)cn23)cc1S(=O)(=O)Nc1ccc(F)cc1` [Example 1-50], for which the inhibition at 0.1 µM was above 80%.

Regarding `COc1ccc(-c2c(C)nc3sc(C(C)(C)O)nn23)cc1S(=O)(=O)C1CCC2(CC1)OCCO2` [Example 2-68], the inhibition at 0.1 µM lay in the range of 50 to 80%.

Turning to `Cc1nc2sc(C(C)(C)O)nn2c1-c1ccc(C#N)c(S(=O)(=O)N[C@H]2CC[C@H](O)CC2)c1` [Example 2-6], the inhibition at 0.1 µM is at most 50%.

Regarding `COc1ccc(-c2c(C)nc3sc(C(O)(C4CC4)C4CC4)nn23)cc1S(=O)(=O)C(C)(C)C(N)=O` [Example 6-3], the inhibition at 0.1 µM was above 80%.

As for `COc1ccc(-c2c(C)nc3sc(C(C)(C)O)nn23)cc1S(=O)(=O)C1COC1` [Example 2-49], the inhibition at 0.1 µM is at most 50%.

Regarding `COc1ccc(-c2c(C)nc3sc(C(C)(C)C)cn23)cc1S(=O)(=O)N[C@H]1CC[C@@H](O)CC1` [Example 1-49], the inhibition at 0.1 µM is above 80%.

Take `Cc1nc2sc(C(C)(C)O)nn2c1-c1ccc(C(F)(F)F)c(S(=O)(=O)NCC2(O)COC2)c1` [Example 2-30]: the inhibition at 0.1 µM is above 80%.

As for `Cc1nc2sc(C(C)(C)O)cn2c1-c1ccc(C(F)(F)F)c(S(=O)(=O)CC(C)(C)O)c1` [Example 2-52], the inhibition at 0.1 µM was at most 50%.

With `Cc1nc2sc(C(C)(C)O)nn2c1-c1ccc(C(F)(F)F)c(S(=O)(=O)CCO)c1` [Example 2-14], the inhibition at 0.1 µM was at most 50%.

With `COc1ccc(-c2c(C)nc3sc(C(C)(C)O)nn23)cc1S(=O)(=O)C1CCC(O)CC1` (stereo not drawn) [Example 14], the inhibition at 0.1 µM is at most 50%.

Take `Cc1nc2sc(C(C)(C)O)nn2c1-c1ccc(OC(F)(F)F)c(S(=O)(=O)N[C@H]2CC[C@@H](O)CC2)c1` [Example 1-17]: the inhibition at 0.1 µM is above 80%.

`COc1ccc(-c2c(C)nc3sc(C4CC4)cn23)cc1S(=O)(=O)N[C@H]1CC[C@@H](O)CC1` [Example 1-48]: the inhibition at 0.1 µM was 50 to 80%.

As to `Cc1nc2sc(C(C)(C)O)nn2c1-c1ccc(C(F)(F)F)c(S(=O)(=O)N[C@H]2CC[C@H](O)CC2)c1` [Example 1-25], the inhibition at 0.1 µM was above 80%.

Consider `COc1ccc(-c2c(C)nc3sc(C(C)(C)O)nn23)cc1S(=O)(=O)C1CC2(COC2)C1` [Example 2-65], for which the inhibition at 0.1 µM was above 80%.

Turning to `Cc1nc2sc(C3CC3)cn2c1-c1ccc(Cl)c(S(=O)(=O)N[C@H]2CC[C@@H](O)CC2)c1` [Example 1-5], the inhibition at 0.1 µM was in the range of 50 to 80%.

On to `[2H]C([2H])([2H])Oc1ccc(-c2c(C)nc3sc(C(C)(C)O)nn23)cc1S(=O)(=O)N[C@H]1CC[C@@H](O)CC1` [Example 2-89], for which the inhibition at 0.1 µM fell in the range of 50 to 80%.

Take `COc1ccc(-c2c(C)nc3sc(C(C)(C)O)nn23)cc1S(=O)(=O)[C@H]1CC[C@@](C)(O)CC1` [Example 15-1]: the inhibition at 0.1 µM is at most 50%.

In the case of `Cc1nc2sc(C(C)(C)O)nn2c1-c1ccc(C(F)(F)F)c(S(=O)(=O)C(C)(C)CO)c1` [Example 4-3], the inhibition at 0.1 µM is above 80%.

Consider `COc1ncc(-c2c(C)nc3sc(C(C)(C)CO)nn23)cc1S(=O)(=O)N[C@H]1CC[C@@H](O)CC1` [Example 20-2], for which the inhibition at 0.1 µM is at most 50%.

With `COc1ccc(-c2c(C)nc3sc(C(O)(C4CC4)C4CC4)nn23)cc1S(=O)(=O)C1CN(C(=O)OC(C)(C)C)C1` [Example 2-84], the inhibition at 0.1 µM is above 80%.

In the case of `COc1ccc(-c2c(C)nc3sc(C(C)(C)O)nn23)cc1S(=O)(=O)NC12CCC(O)(CC1)CC2` [Example 21-11], the inhibition at 0.1 µM was at most 50%.

For the compound `COc1ccc(-c2c(C)nc3sc(C(C)(C)O)nn23)cc1S(=O)(=O)N[C@H]1C[C@@H](O)C1` [Example 21-10], the inhibition at 0.1 µM was at most 50%.

As for `Cc1nc2sc(C(C)(C)O)nn2c1-c1ccc(C(F)(F)F)c(S(=O)(=O)N[C@H]2C[C@@H](O)C2)c1` [Example 2-17], the inhibition at 0.1 µM is above 80%.

`COc1ccc(-c2c(C)nc3sc(C(C)(C)O)nn23)cc1S(=O)(=O)NCC(C)(C)O` [Example 21-7]: the inhibition at 0.1 µM is 50 to 80%.

For the compound `COc1ccc(-c2c(C)nc3sc(C(C)(C)OC)nn23)cc1S(=O)(=O)N[C@H]1CC[C@H](O)CC1` [Example 1-28], the inhibition at 0.1 µM was above 80%.

In the case of `COc1ccc(-c2c(C)nc3sc(C(C)(C)OC)cn23)cc1S(=O)(=O)N[C@H]1CC[C@@H](O)CC1` [Example 1-43], the inhibition at 0.1 µM is above 80%.

With `Cc1nc2sc(C(C)(C)O)nn2c1-c1ccc(C(F)(F)F)c(S(=O)(=O)N(C)[C@H]2CC[C@H](O)CC2)c1` [Example 2-9], the inhibition at 0.1 µM was above 80%.

Turning to `COc1ccc(-c2c(C)nc3sc(C(C)(C)C(=O)O)nn23)cc1S(=O)(=O)N[C@H]1CC[C@@H](O)CC1` [Example 18-1], the inhibition at 0.1 µM was 50 to 80%.

Take `COc1c(F)cc(-c2c(C)nc3sc(C(C)(C)O)nn23)cc1S(=O)(=O)CC(C)(C)O` [Example 2-43]: the inhibition at 0.1 µM was 50 to 80%.

In the case of `Cc1nc2sc(C(C)(C)O)nn2c1-c1ccc(C(F)(F)F)c(S(=O)(=O)C2(CO)CC2)c1` [Example 4-2], the inhibition at 0.1 µM was above 80%.

For the compound `COc1ccc(-c2c(C)nc3sc(C(C)(C)O)nn23)cc1S(=O)(=O)NC1(CO)CC(F)(F)C1` [Example 21-15], the inhibition at 0.1 µM was above 80%.

On to `COc1c(F)cc(-c2c(C)nc3sc(C(O)(C4CC4)C4CC4)nn23)cc1S(=O)(=O)C(C)(C)C(N)=O` [Example 6-4], for which the inhibition at 0.1 µM was above 80%.

For `Cc1nc2sc(C(C)(C)O)nn2c1-c1ccc(C(F)(F)F)c(S(=O)(=O)NC(C)(C)CO)c1` [Example 1-33], the inhibition at 0.1 µM was above 80%.

Consider `COc1ccc(-c2c(C)nc3sc(C(C)(C)O)nn23)cc1S(=O)(=O)Nc1cccnc1` [Example 2-85], for which the inhibition at 0.1 µM is at most 50%.

`COc1ccc(-c2c(C)nc3sc(C(C)(C)O)nn23)cc1S(=O)(=O)[C@]1(C)C[C@H](O)C1` [Example 2-75]: the inhibition at 0.1 µM was at most 50%.

Take `Cc1nc2sc(C(C)(C)O)nn2c1-c1ccc(C(F)(F)F)c(S(=O)(=O)CCC(C)(C)O)c1` [Example 2-45]: the inhibition at 0.1 µM was at most 50%.

Turning to `Cc1nc2sc(C(C)(C)O)nn2c1-c1ccc(C(F)(F)F)c(S(=O)(=O)NC2COC2)c1` [Example 2-22], the inhibition at 0.1 µM was above 80%.

Regarding `COc1ccc(-c2c(C)nc3sc(C(C)(C)O)cn23)cc1S(=O)(=O)Nc1ccc(O)cc1` [Example 21-18], the inhibition at 0.1 µM is 50 to 80%.

Regarding `Cc1nc2sc(C(C)(C)O)nn2c1-c1ccc(C(F)F)c(S(=O)(=O)CC(C)(C)O)c1` [Example 2-37], the inhibition at 0.1 µM was 50 to 80%.

As to `Cc1nc2sc(C(C)(C)O)cn2c1-c1ccc(OC(F)(F)F)c(S(=O)(=O)N[C@H]2CC[C@@H](O)CC2)c1` [Example 1-3], the inhibition at 0.1 µM is at most 50%.

In the case of `COc1ccc(-c2c(C)nc3sc(C(C)(C)O)cn23)cc1S(=O)(=O)N(C)[C@H]1CC[C@@H](O)CC1` [Example 24], the inhibition at 0.1 µM is at most 50%.

Take `Cc1nc2sc(C(C)(C)C)cn2c1-c1ccc(Cl)c(S(=O)(=O)N[C@H]2CC[C@@H](O)CC2)c1` [Example 1-4]: the inhibition at 0.1 µM was above 80%.

Take `COc1c(F)cc(-c2c(C)nc3sc(C(C)(C)O)nn23)cc1S(=O)(=O)N[C@H]1CC[C@H](O)CC1` [Example 2-8]: the inhibition at 0.1 µM is above 80%.

For the compound `CC(=O)N1CC(NS(=O)(=O)c2cc(-c3c(C)nc4sc(C(C)(C)O)nn34)ccc2C(F)(F)F)C1` [Example 2-24], the inhibition at 0.1 µM is at most 50%.

The record behind these values is patent US11952387B2, “Bicyclic heteroaromatic ring derivative” (priority 2018, dated 2024).
